Data published in patent US20240383846A1, “MERCAPTOACETOPHENONE AMINOHYDRAZONES, THEIR SALTS AND USES THEREOF” (priority 2021, published 2024).
In brackets after ≈: the same amount, converted by molar mass. Read-outs that look alike come from different tables or passages of the source.

Assays:
MRSA USA300 [1] = assay: MIC by broth microdilution (CLSI) against MRSA USA300; assay type: cell-based, Staphylococcus aureus; conditions: for MIC: Staphylococcus aureus, read-out: MRSA USA300 MIC
From the text: (§1) Table 1 summarizes the antibacterial activity of certain compounds, according to the present invention, as calculated by minimum inhibitory concentration (MIC) values against one multidrug resistant gram-positive strain (MRSA USA300), and one multidrug resistant gram-negative (Acinetobacter baumannii AB5075). The later bacterial strain is listed at the top of the WHO's critical priority list for antibiotic development. Preferred compounds, according to the present invention are example compounds of formulas 72, 74, and 75, and, in particular, example compound of formula 75.
(§2) The minimum inhibitory concentration (MIC) of tested compounds and control antibiotics was determined using the broth microdilution method according to the guidelines outlined by the Clinical and Laboratory Standards Institute (CLSI, Methods for Dilution Antimicrobial Susceptibility Tests for Bacteria That Grow Aerobically; Approved Standard. January 2012; Vol. Ninth Edition M07-A9. 32 No. 2.). Bacterial strains were grown aerobically overnight on tryptone soy agar plates at 37° C. Afterwards, a bacterial solution equivalent to 0.5 McFarland standard was prepared and diluted in cation-adjusted Mueller-Hinton broth (CAMHB) to achieve a bacterial concentration of about 5×10^5 CFU/mL and seeded in 96-well plates. Compounds and control drugs were added in the first row of the 96-well plates and serially diluted along the plates. Plates were then, incubated aerobically at 37° C. for 18-20 hours.

A. baumannii AB5075 = assay: MIC by broth microdilution (CLSI) against A. baumannii AB5075; assay type: cell-based, Acinetobacter baumannii; conditions: for MIC: Acinetobacter baumannii
From the text: as §1, §2

MRSA USA300 [2] = assay: Multi-step resistance experiment, 14 consecutive passages; assay type: cell-based, Staphylococcus aureus
Description: A multi-step resistance experiment was conducted, with example compound of formula 75. Initially, the MICs of heptyl compound and rifampicin, as the control antibiotic, were determined against MRSA USA300 using the broth microdilution method. Then, the strain was subcultured for fourteen consecutive passages over two weeks, with increasing concentrations of the tested agents, to detect the shift in the MIC, if any.
Multi-step resistance testing was conducted as reported earlier (PLOS One, 12 (2017) e0182821). A broth microdilution assay was used to determine the MIC for the MRSA strain USA300 after being exposed for 14 consecutive passages to either the example compound of formula 75, or rifampicin, as a control antibiotic. Briefly, different concentrations of TBT4 and rifampicin were prepared in 10 mL Mueller-Hinton (MH) broth (0.125 to 32 μg/ml and 0.003 to 1024 μg/mL, respectively) and they were inoculated with 10 μL of an overnight culture of S. aureus strain USA300 and then incubated at 37° C., with shaking at 180 rpm, for 24 h. […] Resistance was classified as a greater than four-fold increase in the initial MIC (Antimicrob. Agents Chemother., 55 (2011) 1177-1181).

MRSA strain USA300 = assay: Murine skin infection model, subcutaneous MRSA infection, topical treatment; assay type: in vivo; conditions: mice, twice daily for four days; for bacterial counts from skin lesions compared with PJ group / appearance of skin lesions (visual comparison): 2% topical; for bacterial counts from skin lesions compared with PJ group: *p≤0.05; for appearance of skin lesions (visual comparison): vs petroleum jelly vehicle
Description: The effectiveness of certain compounds, according to the present invention, was assessed using a murine skin infection model, conducted as previously described (Tseng, C. W. et. al. Subcutaneous infection of methicillin resistant Staphylococcus aureus (MRSA), J. Vis. Exp., (2011) 2528). The effect of example compound of formula 75 was assessed against skin infection caused by methicillin-resistant Staphylococcus aureus (MRSA), the main causative agent of diabetic foot ulcer. Within 72 hours post-subcutaneous infection with MRSA strain USA300, the backs of the mice started showing evident lesions. At this point, treatment regimen started for the three groups of mice, for four days, twice daily, with petroleum jelly (PJ) or petroleum jelly with 2% example compound of formula 75 or 2% fusidic acid ointment (FA). […] The mice with plain vehicle (PJ) applied throughout the experiment had ulcerated lesions and visible skin damage with demarcated red prominent edges, as shown in FIG. 2A.

[3] = broth microdilution, CAMHB, 37° C., 18-20 hours
[4] = AB5075, broth microdilution, CAMHB, 37° C., 18-20 hours, read-out: A. baumannii AB5075 MIC
[5] = comparison of MIC values of Table 1
[6] = end of the experiment (fourteen passages)

Row | Compound | MIC (MRSA USA300 [1]; [3]) | MIC (A. baumannii AB5075; [4]) | other results
1 | CCCSc1ccc(/C(C)=N/NC(=N)N)cc1 [Example compound of formula 68] | – | – | MRSA USA300 MIC (MRSA USA300 [1]; [3]): No inhibition; A. baumannii AB5075 MIC (A. baumannii AB5075; [3]): No inhibition
2 | CCCCSc1ccc(/C(C)=N/NC(=N)N)cc1 [Example compound of formula 69] | 8 µg/mL | 16 µg/mL | –
3 | C=CCCSc1ccc(/C(C)=N/NC(=N)N)cc1 [Example compound of formula 70] | 32 µg/mL | 32 µg/mL | –
4 | CCCCCSc1ccc(/C(C)=N/NC(=N)N)cc1 [Example compound of formula 71] | 8 µg/mL | 16 µg/mL | –
5 | CCCCCCCCSc1ccc(/C(C)=N/NC(=N)N)cc1 [Example compound of formula 72] | 1 µg/mL | 8 µg/mL | –
6 | CCCCCCCCCSc1ccc(/C(C)=N/NC(=N)N)cc1 [Example compound of formula 73] | 2 µg/mL | 16 µg/mL | –
7 | CCCCCCSc1ccc(/C(C)=N/NC(=N)N)cc1 [Example compound of formula 74, 2-(1-(4-(Hexylthio)phenyl)ethylidene)hydrazine-1-carboximidamide] | 0.5 µg/mL | 4 µg/mL | potency against S. aureus USA300 relative to example compound of formula 75 (MRSA USA300 [1]; [5]): maintained the same potency; potency against tested gram-negative pathogen (A. baumannii AB5075) relative to example compound of formula 75 (A. baumannii AB5075; [5]): four times less potent
8 | CCCCCCCSc1ccc(/C(C)=N/NC(=N)N)cc1 [Example compound of formula 75, 2-(1-(4-(Heptylthio)phenyl)ethylidene)hydrazine-1-carboximidamide] | 0.5 µg/mL | 1 µg/mL | increase in MIC against MRSA USA300 (MRSA USA300 [2]; eighth passage): 2 fold; increase in MIC against MRSA USA300 (MRSA USA300 [2]; [6]): remained stable till the end of the experiment; increase in MIC against MRSA USA300 (MRSA USA300 [2]; on the fifth passage): one-fold; decrease in bacterial loads recovered from skin lesions (MRSA strain USA300; 2% in petroleum jelly, topical): ~1 log cycle; reduction in bacterial loads recovered from skin lesions (MRSA strain USA300; 2% in petroleum jelly, topical): 90%; bacterial counts from skin lesions compared with PJ group (MRSA strain USA300): significantly lower than the counts obtained from the PJ group; appearance of skin lesions (visual comparison) (MRSA strain USA300): showed signs of lesion healing and better recovery
9 | C/C(=N\NC(=N)N)c1ccc(SCC(C)C)cc1 [Example compound of formula 76] | 8 µg/mL | 16 µg/mL | –
10 | C/C(=N\NC(=N)N)c1ccc(SCCC(C)C)cc1 [Example compound of formula 77] | 4 µg/mL | 8 µg/mL | –
11 | CCC(CC)CSc1ccc(/C(C)=N/NC(=N)N)cc1 [Example compound of formula 78] | – | – | MRSA USA300 MIC (MRSA USA300 [1]; [3]): No inhibition; A. baumannii AB5075 MIC (A. baumannii AB5075; [3]): No inhibition
12 | C/C(=N\NC(=N)N)c1ccc(SC2CCCC2)cc1 [Example compound of formula 79] | 8 µg/mL | 16 µg/mL | –
13 | C/C(=N\NC(=N)N)c1ccc(SC2CCCCC2)cc1 [Example compound of formula 80] | 4 µg/mL | 8 µg/mL | –
14 | C/C(=N\NC(=N)N)c1ccc(SCC2CCC2)cc1 [Example compound of formula 81] | 8 µg/mL | 16 µg/mL | –
15 | C/C(=N\NC(=N)N)c1ccc(SCC2CCCCC2)cc1 [Example compound of formula 82] | – | – | MRSA USA300 MIC (MRSA USA300 [1]; [3]): No inhibition; A. baumannii AB5075 MIC (A. baumannii AB5075; [3]): No inhibition
16 | C/C(=N\NC(=N)N)c1ccc(SCc2ccccc2)cc1 [Example compound of formula 83] | 4 µg/mL | 16 µg/mL | –
17 | C/C(=N\NC(=N)N)c1ccc(SCCc2ccccc2)cc1 [Example compound of formula 84] | 2 µg/mL | 8 µg/mL | –
18 | CN[C@H](CC(C)C)C(=O)N[C@H]1C(=O)N[C@@H](CC(N)=O)C(=O)N[C@H]2C(=O)N[C@H]3C(=O)N[C@H](C(=O)N[C@H](C(=O)O)c4cc(O)cc(O)c4-c4cc3ccc4O)[C@H](O)c3ccc(c(Cl)c3)Oc3cc2cc(c3O[C@@H]2O[C@H](CO)[C@@H](O)[C@H](O)[C@H]2O[C@H]2C[C@](C)(N)[C@H](O)[C@H](C)O2)Oc2ccc(cc2Cl)[C@H]1O [Vancomycin, reference compound] | – | – | MIC (MRSA USA300 [1]): 1 µg/mL (≈ 0.69 µM); MIC (A. baumannii AB5075; AB5075, read-out: A. baumannii AB5075 MIC): > 128 µg/mL
19 | CC(=O)O[C@H]1C[C@@]2(C)[C@@H](C[C@@H](O)[C@H]3[C@@]4(C)CC[C@@H](O)[C@@H](C)[C@@H]4CC[C@@]32C)/C1=C(\CCC=C(C)C)C(=O)O [fusidic acid, reference compound] | – | – | bacterial counts from skin lesions compared with PJ group (MRSA strain USA300): significantly lower than the counts obtained from the PJ group; appearance of skin lesions (visual comparison) (MRSA strain USA300): showed signs of lesion healing and better recovery
20 | CO[C@H]1/C=C/O[C@@]2(C)Oc3c(C)c(O)c4c(O)c(c(/C=N/N5CCN(C)CC5)c(O)c4c3C2=O)NC(=O)/C(C)=C\C=C\[C@H](C)[C@H](O)[C@@H](C)[C@@H](O)[C@@H](C)[C@H](OC(C)=O)[C@@H]1C [rifampicin, reference compound] | – | – | increase in MIC against MRSA USA300 (MRSA USA300 [2]; eighth passage): 7 fold; increase in MIC against MRSA USA300 (MRSA USA300 [2]; [6]): 13 fold
21 | Gentamycin [reference compound] | – | – | A. baumannii AB5075 MIC (A. baumannii AB5075; [3]): 1 µg/mL
